Legend:
[1] = target: anti-T4 Fab fragment; test: SPR (BIAcore T200) inhibition assay, immobilized T4-AP, affinity and specificity determination; assay type: binding, mouse; details: 2 nM anti-T4 Fab preincubated with analyte, T4-AP on CM5 chip, 2% DMSO-PBSP, triplicates
Description: T4-alkaline phosphatase was immobilized to the sensor surface and Kd values were determined by inhibition assay method.
T4-AP and AP (P5931, Sigma-Aldrich, St. Louis, Mo., USA), were diluted to 100 μg/mL concentration in 10 mM sodium acetate pH 4.0 (BR100351, GE Healthcare, Piscataway, N.J., USA). T4-AP and AP were immobilized to preconditioned CM5 chip using EDC/NHS—chemistry following manufacturer's instructions. Concentration of anti-T4 Fab fragment was calculated using theoretical extinction coefficient (ExPASy ProtParam tool, web.expasy.org/protparam) of the anti-T4 Fab fragment and by measuring the A280 with NanoDrop 2000c instrument (Thermo Disher Scientific, Waltham, Mass., USA). […] Flowrate was set to 30 μl/min in all cycle steps.
Preincubated mixtures were injected over the sensor chip surface for seven minutes and dissociated for 30 seconds. […] Data collection point was set to be 10 seconds after the start of dissociation phase. All sample series were run as triplicates, where a single sample series consisted from growing small molecule concentration in the preincubation mixture. Data was reference and blank subtracted. In addition, small differences in DMSO between the samples were compensated using DMSO solvent correction series, as recommended by instrument manufacturer GE Healthcare). Concentrations of free anti-T4 Fab fragments remaining in the preincubated mixtures were calculated by comparing the obtained responses against standard curve of anti-T4 Fab fragment. Affinity constants were calculated using BIAcore T200 Evaluation Software (GE Healthcare, Piscataway, N.J., USA) applying four-parameter logistic function. (See FIGS. 4A and B and Table 1.)

[2] = test system: anti-T4 Fab; test: competitive ELISA, T4-BSA coated wells, 0.25 nM anti-T4 Fab pre-incubated with analyte; assay type: binding, mouse; details: for IC50: by ELISA assay, read-out: relative IC50
Description: Microtiter plate wells (Nunc, 436023) were coated with 100 μl of 4 μg/ml T4-BSA (Fitzgerald, 80-IT50) in PBS (15 mM phosphate, 150 mM NaCl, pH 7.3) for one hour at +37° C. with 600 rpm shaking. Wells were then washed three times with 300 μl PBS supplemented with 0.05% (v/v) Tween20 (Sigma-Aldrich, 93773-250G). Wells were blocked with 200 μl of Superblock® (Thermo Fisher Scientific, 37516) for 30 minutes in room temperature with 600 rpm shaking and washed as above. 100 μl of pre-incubated mixtures, containing 0.25 nM anti-T4 Fab and varying concentrations of L-thyroxine (T4) (Sigma-Aldrich, T2376) in PBSP (GE Healthcare, 28-9950-84) supplemented with 1% DMSO (v/v) (Sigma-Aldrich, D5879-100ML), were transferred to wells and incubated for 30 minutes with 600 rpm shaking in room temperature. Each sample had 12 replicates. Wells were washed as above and 100 μl of Goat anti-mouse Kappa-HRP (SoutherBiotech, 1050-05) diluted 1:1000 in Superblock was transferred to wells and incubation was carried out for 30 minutes at 600 rpm shaking in room temperature. Wells were washed as above and 100 μl of TMB Microwell Peroxidase Substrate System (2-C) (SeraCare, 50-76-00) was transferred to wells and enzymatic reaction was carried out for 30 minutes with 600 rpm shaking in room temperature. Reactions were stopped by transferring 100 μl of 1 M H3PO4 to the wells and measured at A450 using Varioskan (Thermo Fisher Scientific). Data was analysed with OriginPro 2017-software.
Assay was performed as in the previous paragraph (under title L-Thyroxine) except instead of T4 (Thyroxine) TIBPA (Tetraiodobisphenol A) was used.
Assay was performed as in the paragraph under title L-Thyroxine except instead of T4 (Thyroxine) TBBPA (Tetrabromobisphenol A) was used.
Assay was performed as in the paragraph under title L-Thyroxine except instead of T4 (Thyroxine) TCBPA (Tetrachlorobisphenol A) was used.
Assay was performed as in the paragraph under title L-Thyroxine except instead of T4 (Thyroxine) BPA (Bisphenol A) was used.

KD, anti-T4 Fab [1] | SMILES | competition in competitive ELISA assay ([2]; high concentration (5 μM)) | Kd [1] [nM] | IC50 [2] [nM]
no binding | CC(C)(c1ccc(O)cc1)c1ccc(O)cc1 [BPA, Bisphenol A] | No competition was observed |  | 
no binding | N[C@@H](Cc1ccc(Oc2ccc(O)cc2)cc1)C(=O)O [Compound T0] |  |  | 
 | N[C@@H](Cc1cc(I)c(Oc2cc(I)c(O)c(I)c2)c(I)c1)C(=O)O [Compound T4, 3,5,3′,5′-tetraiodothyronine] |  | 0.53 | 0.54
 | CC(C)(c1cc(Br)c(O)c(Br)c1)c1cc(Br)c(O)c(Br)c1 [TBBPA, Tetrabromobisphenol A] |  | 69.2 | 74
 | CC(C)(c1cc(Cl)c(O)c(Cl)c1)c1cc(Cl)c(O)c(Cl)c1 [TCBPA, Tetrachlorobisphenol A] |  | 558 | 544
 | CC(C)(c1cc(I)c(O)c(I)c1)c1cc(I)c(O)c(I)c1 [TIBPA, Tetraiodobisphenol A] |  | 37.3 | 54
